The results in this text go back to patent publication US8895733B2 (Novartis AG, priority 2010, dated 2014).

T1 sequence (Q15858 whole entry): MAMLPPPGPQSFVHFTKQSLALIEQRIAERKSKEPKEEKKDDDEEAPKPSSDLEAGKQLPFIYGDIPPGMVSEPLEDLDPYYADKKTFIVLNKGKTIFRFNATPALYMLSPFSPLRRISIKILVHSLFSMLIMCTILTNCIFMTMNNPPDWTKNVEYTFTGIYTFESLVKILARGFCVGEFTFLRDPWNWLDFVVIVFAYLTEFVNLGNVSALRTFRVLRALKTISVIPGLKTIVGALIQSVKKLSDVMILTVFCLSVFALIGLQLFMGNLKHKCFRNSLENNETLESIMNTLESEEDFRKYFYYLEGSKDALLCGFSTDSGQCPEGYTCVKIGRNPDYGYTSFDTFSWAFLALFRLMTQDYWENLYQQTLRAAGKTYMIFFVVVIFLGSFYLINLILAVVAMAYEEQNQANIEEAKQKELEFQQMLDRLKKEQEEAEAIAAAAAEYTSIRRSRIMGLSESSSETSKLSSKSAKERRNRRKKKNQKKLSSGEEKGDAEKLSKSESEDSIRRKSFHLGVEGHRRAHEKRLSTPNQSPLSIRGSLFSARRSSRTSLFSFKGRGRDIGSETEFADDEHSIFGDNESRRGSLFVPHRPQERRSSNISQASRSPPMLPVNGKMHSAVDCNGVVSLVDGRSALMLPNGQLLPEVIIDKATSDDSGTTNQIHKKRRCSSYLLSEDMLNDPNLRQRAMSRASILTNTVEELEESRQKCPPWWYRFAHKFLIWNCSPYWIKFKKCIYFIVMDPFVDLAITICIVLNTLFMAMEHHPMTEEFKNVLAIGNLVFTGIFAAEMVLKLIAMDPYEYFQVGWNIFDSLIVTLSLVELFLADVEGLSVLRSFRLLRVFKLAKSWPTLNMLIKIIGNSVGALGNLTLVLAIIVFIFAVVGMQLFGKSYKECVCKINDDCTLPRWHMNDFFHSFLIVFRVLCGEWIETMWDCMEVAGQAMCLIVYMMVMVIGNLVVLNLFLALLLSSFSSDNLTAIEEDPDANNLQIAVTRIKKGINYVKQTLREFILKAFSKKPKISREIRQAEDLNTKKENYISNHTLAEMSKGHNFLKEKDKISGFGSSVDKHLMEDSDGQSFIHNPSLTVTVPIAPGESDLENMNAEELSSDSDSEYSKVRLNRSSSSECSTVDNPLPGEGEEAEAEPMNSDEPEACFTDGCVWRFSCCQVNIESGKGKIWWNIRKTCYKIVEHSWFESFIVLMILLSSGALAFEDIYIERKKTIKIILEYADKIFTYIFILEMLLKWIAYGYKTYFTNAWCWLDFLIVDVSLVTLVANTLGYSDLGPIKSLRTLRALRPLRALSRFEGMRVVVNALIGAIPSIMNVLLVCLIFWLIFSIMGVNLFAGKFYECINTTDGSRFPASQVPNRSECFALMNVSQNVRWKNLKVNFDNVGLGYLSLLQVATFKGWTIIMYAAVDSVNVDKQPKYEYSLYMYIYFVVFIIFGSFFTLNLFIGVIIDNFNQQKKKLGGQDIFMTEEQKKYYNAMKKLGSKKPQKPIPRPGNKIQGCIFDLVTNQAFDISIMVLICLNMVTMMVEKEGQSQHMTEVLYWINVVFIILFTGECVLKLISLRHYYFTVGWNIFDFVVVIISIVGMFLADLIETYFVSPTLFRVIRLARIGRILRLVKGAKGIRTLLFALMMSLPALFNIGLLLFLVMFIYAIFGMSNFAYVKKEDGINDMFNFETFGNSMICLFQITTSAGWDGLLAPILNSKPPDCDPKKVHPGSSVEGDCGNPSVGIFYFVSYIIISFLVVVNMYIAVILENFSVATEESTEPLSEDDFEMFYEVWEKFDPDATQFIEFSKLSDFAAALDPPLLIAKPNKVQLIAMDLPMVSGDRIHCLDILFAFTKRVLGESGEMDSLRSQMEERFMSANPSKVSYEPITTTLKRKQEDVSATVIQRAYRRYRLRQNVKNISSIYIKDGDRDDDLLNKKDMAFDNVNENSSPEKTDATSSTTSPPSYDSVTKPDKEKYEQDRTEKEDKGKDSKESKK

The first experiment addresses T1, Nav 1.7 (Homo sapiens, UniProt Q15858).
T1 construct: expressed in transfected cells
The experiment is described as follows: Whole-cell voltage clamp electrophysiology, automated patch clamp (marker c in Table of Examples). Conditions: marker c: Automated patch clamp data; read-out: Nav 1.7 activity. In kind it is cell-based. The text has this: a.IonWork Quattro data, b=Manual patch clamp data, c=Automated patch clamp data M=Method
Whole-Cell Voltage Clamp Electrophysiology Assay
Patch-clamp electrophysiology is considered the gold standard technique for investigation of ion channel function and pharmacology. Using this method, sodium channel currents can be measured in cells, which stably (or transiently) express the sodium channel subtype of interest. Application of compounds during such experiments provides a functional measure of the activity and potency of compounds affecting the ion channel of interest.
Electrophysiological studies can be performed using automated or manual patch-clamp techniques. Automated patch-clamp instruments suitable for this work include the Ion Works HT (MDS), Ion Works Quattro (MDS), PatchLiner (Nanion technologies), Port-A-Patch (Nanion technologies), QPatch (Sophion) or any other suitable platform.
For recording in automated patch-clamp instruments, cells expressing the voltage-gated sodium channel subtype of interest are dispensed in appropriate chips (plates with more than one recording chambers each containing one or more apertures to generate whole-cell patches), as provided by the manufacturer. Typically, the whole-cell perforated patch configuration is used for probing the pharmacology of compounds in automated patch-clamp electrophysiology on sodium channels. Extracellular and intracellular buffers for such experiments are composed according to the literature, or according to the instructions provided by the manufacturer of the instruments. Test solutions, which contain the compounds to be tested, are applied to the cells expressing the sodium channel of interest by a pipetting system, typically integrated into the robots.
A suitable voltage stimulus protocol is used to activate voltage-gated sodium channel proteins of interest. A typical stimulus protocol may consist of sweeps of sequential voltage pulses starting from a holding potential (i.e. −65 mV), to a more positive and depolarising test pulse potential (i.e. −10 mV) and finally to a more negative and hyperpolarising potential (i.e. −100 mV). According to the biophysics of the voltage-gated ion channel of interest and interest in channel configuration the voltages and durations of the pulses as well as the overall frequency of sweeps applied might vary. Accordingly, a stimulus protocol was designed to assess compounds due to their potential to block NaV1.7 channels primarily in inactivated state. Selectivity over other voltage-gated sodium channel members was assessed by protocols that reflect the native function of the channels (i.e. heart rate or firing of neurons).
(In general: In patch-clamp work, channel activity is measured electrically.)
On to `CN(c1ccccc1)c1nc(N)nc(-c2noc(-c3ccncn3)n2)n1` [Example 120, N-Methyl-N-phenyl-6-(5-pyrimidin-4-yl-[1,2,4]oxadiazol-3-yl)-[1,3,5]triazine-2,4-diamine], for which the IC50 was 2240 nM.
The same measure, in the same setting: the figure for `Nc1nc(-c2noc(-c3ccco3)n2)nc(N(CC2CC2)c2ccccc2)n1` [Example 121, N-Cyclopropylmethyl-6-(5-furan-2-yl-[1,2,4]oxadiazol-3-yl)-N-phenyl-[1,3,5]triazine-2,4-diamine] is 395 nM; for `CN(c1ccccc1)c1nc(N)nc(-c2noc(-c3ccc(F)cc3)n2)n1` [Example 122, 6-[5-(4-Fluoro-phenyl)-[1,2,4]oxadiazol-3-yl]-N-methyl-N-phenyl-[1,3,5]triazine-2,4-diamine] it is 644 nM; for `CN(c1ccccc1)c1nc(N)nc(-c2noc(-c3cccc(F)c3)n2)n1` [Example 123, 6-[5-(3-Fluoro-phenyl)-[1,2,4]oxadiazol-3-yl]-N-methyl-N-phenyl-[1,3,5]triazine-2,4-diamine] it is 929 nM.
Same read-out and setting: the figure for `CN(c1ccccc1)c1nc(N)nc(-c2noc(-c3ccccc3F)n2)n1` [Example 124, 6-[5-(2-Fluoro-phenyl)-[1,2,4]oxadiazol-3-yl]-N-methyl-N-phenyl-[1,3,5]triazine-2,4-diamine] is 428 nM.
Still for that read-out and setting: the figure for `Cc1ccsc1-c1nc(-c2nc(N)nc(N(C)c3ccccc3)n2)no1` [Example 126, N-Methyl-6-[5-(3-methyl-thiophen-2-yl)-[1,2,4]oxadiazol-3-yl]-N-phenyl-[1,3,5]triazine-2,4-diamine] is 782 nM; for `CN(c1ccccc1)c1nc(N)nc(-c2noc(-c3cnco3)n2)n1` [Example 127, N-Methyl-6-(5-oxazol-5-yl-[1,2,4]oxadiazol-3-yl)-N-phenyl-[1,3,5]triazine-2,4-diamine] it is 2080 nM; for `CN(c1ccccc1)c1nc(N)nc(-c2noc(-c3ncco3)n2)n1` [Example 128, N-Methyl-6-(5-oxazol-2-yl-[1,2,4]oxadiazol-3-yl)-N-phenyl-[1,3,5]triazine-2,4-diamine] it is 1510 nM.
As to `Cc1ccc(-c2nc(-c3nc(N)nc(N(C)c4ccccc4)n3)no2)s1` [Example 129, N-Methyl-6-[5-(5-methyl-thiophen-2-yl)-[1,2,4]oxadiazol-3-yl]-N-phenyl-[1,3,5]triazine-2,4-diamine], the IC50 amounted to 2540 nM.
On the same count and under the same terms, the figure for `CN(c1ccccc1)c1nc(N)nc(-c2noc(N3CCCC3)n2)n1` [Example 131, N-Methyl-N-phenyl-6-(5-pyrrolidin-1-yl-[1,2,4]oxadiazol-3-yl)-[1,3,5]triazine-2,4-diamine] is 5110 nM; for `CN(c1nc(N)nc(-c2noc(-c3ccc(OCC4CC4)nc3)n2)n1)c1ccccc1F` [Example 134, 6-{5-[6-(cyclopropylmethoxy)pyridin-3-yl]-1,2,4-oxadiazol-3-yl}-2-N-(2-fluorophenyl)-2-N-methyl-1,3,5-triazine-2,4-diamine] it is 67 nM.
On the same count and under the same terms, in the case of `Nc1nc(Nc2cccc(F)c2)nc(-c2noc(-c3ccc(OCC4CC4)nc3)n2)n1` [Example 136, 6-{5-[6-(cyclopropylmethoxy)pyridin-3-yl]-1,2,4-oxadiazol-3-yl}-2-N-(3-fluorophenyl)-1,3,5-triazine-2,4-diamine] it was 65 nM; in that of `CN(c1ccccc1)c1nc(N)nc(-c2noc(C(=O)N3CC(Oc4ccc(F)cc4)C3)n2)n1` [Example 137], 564 nM; in that of `Nc1nc(Nc2ccccc2F)nc(-c2noc(-c3ccc(OCC4CC4)nc3)n2)n1` [Example 138, 6-{5-[6-(cyclopropylmethoxy)pyridin-3-yl]-1,2,4-oxadiazol-3-yl}-2-N-(2-fluorophenyl)-1,3,5-thazine-2,4-diamine], 106 nM.
On the same count and under the same terms, the figure for `Nc1nc(Nc2cccc(F)c2F)nc(-c2noc(-c3ccc(OCC4CC4)nc3)n2)n1` [Example 139, 6-{5-[6-(cyclopropylmethoxy)pyridin-3-yl]-1,2,4-oxadiazol-3-yl}-2-N-(2,3-difluorophenyl)-1,3,5-triazine-2,4-diamine] is 144 nM; for `CN(c1nc(N)nc(-c2noc(-c3ccc(OCC4CC4)nc3)n2)n1)c1cccc(F)c1F` [Example 140, 6-{5-[6-(cyclopropylmethoxy)pyridin-3-yl]-1,2,4-oxadiazol-3-yl}-2-N-(2,3-difluorophenyl)-2-N-methyl-1,3,5-triazine-2,4-diamine] it is 85 nM.
With `CN(c1ccccc1)c1nc(N)nc(-c2noc(-c3ccc(OC4CCOC4)nc3)n2)n1` (stereo not drawn) [Example 141, 2-N-methyl-6-{5-[6-(oxolan-3-yloxy)pyridin-3-yl]-1,2,4-oxadiazol-3-yl}-2-N-phenyl-1,3,5-triazine-2,4-diamine], the IC50 was 261 nM.
In the case of `CN(c1ccccc1)c1nc(N)nc(-c2noc(-c3ccc(C(F)(F)F)nc3Cl)n2)n1` [Example 142, 6-{5-[2-chloro-6-(trifluoromethyl)pyridin-3-yl]-1,2,4-oxadiazol-3-yl}-2-N-methyl-2-N-phenyl-1,3,5-triazine-2,4-diamine], the IC50 was found to be 5820 nM.
On the same count and under the same terms, the figure for `COCCOCc1ccc(-c2nc(-c3nc(N)nc(N(C)c4ccccc4)n3)no2)cn1` [Example 143, 6-{5-[6-(2-Methoxy-ethoxymethyl)-pyridin-3-yl]-[1,2,4]oxadiazol-3-yl}-N-methyl-N-phenyl-[1,3,5]triazine-2,4-diamine] is 3570 nM.
`CN(c1ccccc1)c1nc(N)nc(-c2noc(-c3ccc(COC4CCOC4)nc3)n2)n1` (stereo not drawn) [Example 144, N-Methyl-N-phenyl-6-{5-[6-(tetrahydro-furan-3-yloxymethyl)-pyridin-3-yl]-[1,2,4]oxadiazol-3-yl}-[1,3,5]triazine-2,4-diamine]: the IC50 was found to be 1720 nM.
Regarding `CN(c1ccccc1)c1nc(N)nc(-c2noc(-c3ccc(OCC4CC4)nc3)n2)n1` [Example 146, 6-{5-[6-(cyclopropylmethoxy)pyridin-3-yl]-1,2,4-oxadiazol-3-yl}-2-N-methyl-2-N-phenyl-1,3,5-triazine-2,4-diamine], the IC50 was 188 nM.
On the same count and under the same terms, the figure for `CCN(c1ccccc1)c1nc(N)nc(-c2noc(-c3ccc(OCC(F)(F)F)nc3)n2)n1` [Example 147, 2-N-ethyl-2-N-phenyl-6-{5-[6-(2,2,2-trifluoroethoxy)pyridin-3-yl]-1,2,4-oxadiazol-3-yl}-1,3,5-triazine-2,4-diamine] is 42 nM.
On the same count and under the same terms, in the case of `CCOc1ccc(-c2nc(-c3nc(N)nc(N(C)c4ccccc4)n3)no2)cn1` [Example 148, 6-[5-(6-ethoxypyridin-3-yl)-1,2,4-oxadiazol-3-yl]-2-N-methyl-2-N-phenyl-1,3,5-triazine-2,4-diamine] it was 323 nM.
With `CC(C)Oc1ccc(-c2nc(-c3nc(N)nc(N(C)c4ccccc4)n3)no2)cn1` [Example 149, 2-N-methyl-2-N-phenyl-6-{5-[6-(propan-2-yloxy)pyridin-3-yl]-1,2,4-oxadiazol-3-yl}-1,3,5-triazine-2,4-diamine], the IC50 is 142 nM.
Take `Nc1nc(-c2noc(-c3ccc(OCC(F)(F)F)nc3)n2)nc(N(CC(F)(F)F)c2ccccc2)n1` [Example 150, 2-N-phenyl-6-{5-[6-(2,2,2-trifluoroethoxy)pyridin-3-yl]-1,2,4-oxadiazol-3-yl}-2-N-(2,2,2-trifluoroethyl)-1,3,5-triazine-2,4-diamine]: the IC50 turned out to be 222 nM.
Still for that read-out and setting: in the case of `FC(F)(F)CNc1nc(Nc2ccccc2)nc(-c2noc(-c3ccc(OCC(F)(F)F)nc3)n2)n1` [Example 151, 2-N-phenyl-6-{5-[6-(2,2,2-trifluoroethoxy)pyridin-3-yl]-1,2,4-oxadiazol-3-yl}-4-N-(2,2,2-trifluoroethyl)-1,3,5-triazine-2,4-diamine] it was 1480 nM.
Still for that read-out and setting: the figure for `Cc1cccnc1-c1nc(-c2nc(N)nc(N(C)c3ccccc3)n2)no1` [Example 152, 2-N-methyl-6-[5-(3-methylpyridin-2-yl)-1,2,4-oxadiazol-3-yl]-2-N-phenyl-1,3,5-triazine-2,4-diamine] is 1620 nM; for `CN(c1ccccc1)c1nc(N)nc(-c2noc(-c3ccc(F)cn3)n2)n1` [Example 153, 6-[5-(5-fluoropyridin-2-yl)-1,2,4-oxadiazol-3-yl]-2-N-methyl-2-N-phenyl-1,3,5-triazine-2,4-diamine] it is 1390 nM.
Same read-out and setting: in the case of `Cc1cc(C)c(-c2nc(-c3nc(N)nc(N(C)c4ccccc4)n3)no2)cn1` [Example 154, 6-[5-(4,6-dimethylpyridin-3-yl)-1,2,4-oxadiazol-3-yl]-2-N-methyl-2-N-phenyl-1,3,5-triazine-2,4-diamine] it was 5060 nM.

The experiment is the same for the next values; noted with them: no platform marker printed in the cell; read-out: Nav 1.7 activity.
For `Nc1nc(-c2noc(-c3ccco3)n2)nc(N2CCCc3ccccc32)n1` [Example 116, 4-(3,4-Dihydroquinolin-1-yl)-6-(5-furan-2-yl-[1,2,4]oxadiazol-3-yl)-[1,3,5]triazine-2-amine], the IC50 was found to be 1620 nM.
